The target of assay [1] is T1, baculovirus-expressed ALK (Homo sapiens, UniProt Q9UM73).
T1 construct: host or cells: baculovirus expression system
Briefly: ALK Kinase Assay (ELISA-type, time-resolved fluorescence). The assay is classed as biochemical. The conditions noted are these: 1 μM ATP (Km level). The procedure, abridged:
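Substrate coating: phospholipase C-γ, 10 μg/mL in TBS. Kinase step: 30 ng/ml ALK, 15 min, 37° C. Detection and analysis: Eu-N1 PT66 antibody, with IC50 fitted as a sigmoidal variable-slope dose-response curve.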
(In an ELISA, binding on a coated surface is turned into a signal by an enzyme label.)

The target of assay [2] is T2, c-Met (cytoplasmic domain) (Homo sapiens, UniProt P08581).
T2 construct: 10 ng/mL c-Met (cytoplasmic domain, Invitrogen Corporation #PV3143); purchased Invitrogen Corporation PV3143
Briefly: c-Met Kinase Assay (same methods as for ALK, with modifications). The conditions noted are these: 1 μM ATP (Km level). The class given is biochemical. The method, boiled down: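 This plate-based kinase format uses immobilized phospholipase C-γ as substrate, phosphorylated by c-Met cytoplasmic domain (10 ng/mL) at 37° C for 15 minutes.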

[3] abbreviates: 30 ng/ml ALK, 37° C., 15 minutes, read-out: ALK Activity (ALK kinase inhibition, IC50 class).
Setting [4] is: 10 ng/mL c-Met, read-out: cMet Activity (c-Met kinase inhibition, IC50 class).
Setting [5] is: ALK kinase inhibition, read-out: ALK Activity.
Where [6] appears, read: c-Met kinase inhibition, read-out: cMet Activity.
Where [7] appears, read: read-out: ALK Activity (ALK Kinase Inhibition, IC50).
Where [8] appears, read: read-out: cMet Activity (c-Met Kinase Inhibition, IC50).

From patent publication US8148391B2 (Cephalon, Inc., priority 2006, dated 2012) come the findings set out here.

Where two headings read alike, the source gives them in different places. Some results are limits rather than exact numbers.

T1 sequence (Q9UM73 19-1620): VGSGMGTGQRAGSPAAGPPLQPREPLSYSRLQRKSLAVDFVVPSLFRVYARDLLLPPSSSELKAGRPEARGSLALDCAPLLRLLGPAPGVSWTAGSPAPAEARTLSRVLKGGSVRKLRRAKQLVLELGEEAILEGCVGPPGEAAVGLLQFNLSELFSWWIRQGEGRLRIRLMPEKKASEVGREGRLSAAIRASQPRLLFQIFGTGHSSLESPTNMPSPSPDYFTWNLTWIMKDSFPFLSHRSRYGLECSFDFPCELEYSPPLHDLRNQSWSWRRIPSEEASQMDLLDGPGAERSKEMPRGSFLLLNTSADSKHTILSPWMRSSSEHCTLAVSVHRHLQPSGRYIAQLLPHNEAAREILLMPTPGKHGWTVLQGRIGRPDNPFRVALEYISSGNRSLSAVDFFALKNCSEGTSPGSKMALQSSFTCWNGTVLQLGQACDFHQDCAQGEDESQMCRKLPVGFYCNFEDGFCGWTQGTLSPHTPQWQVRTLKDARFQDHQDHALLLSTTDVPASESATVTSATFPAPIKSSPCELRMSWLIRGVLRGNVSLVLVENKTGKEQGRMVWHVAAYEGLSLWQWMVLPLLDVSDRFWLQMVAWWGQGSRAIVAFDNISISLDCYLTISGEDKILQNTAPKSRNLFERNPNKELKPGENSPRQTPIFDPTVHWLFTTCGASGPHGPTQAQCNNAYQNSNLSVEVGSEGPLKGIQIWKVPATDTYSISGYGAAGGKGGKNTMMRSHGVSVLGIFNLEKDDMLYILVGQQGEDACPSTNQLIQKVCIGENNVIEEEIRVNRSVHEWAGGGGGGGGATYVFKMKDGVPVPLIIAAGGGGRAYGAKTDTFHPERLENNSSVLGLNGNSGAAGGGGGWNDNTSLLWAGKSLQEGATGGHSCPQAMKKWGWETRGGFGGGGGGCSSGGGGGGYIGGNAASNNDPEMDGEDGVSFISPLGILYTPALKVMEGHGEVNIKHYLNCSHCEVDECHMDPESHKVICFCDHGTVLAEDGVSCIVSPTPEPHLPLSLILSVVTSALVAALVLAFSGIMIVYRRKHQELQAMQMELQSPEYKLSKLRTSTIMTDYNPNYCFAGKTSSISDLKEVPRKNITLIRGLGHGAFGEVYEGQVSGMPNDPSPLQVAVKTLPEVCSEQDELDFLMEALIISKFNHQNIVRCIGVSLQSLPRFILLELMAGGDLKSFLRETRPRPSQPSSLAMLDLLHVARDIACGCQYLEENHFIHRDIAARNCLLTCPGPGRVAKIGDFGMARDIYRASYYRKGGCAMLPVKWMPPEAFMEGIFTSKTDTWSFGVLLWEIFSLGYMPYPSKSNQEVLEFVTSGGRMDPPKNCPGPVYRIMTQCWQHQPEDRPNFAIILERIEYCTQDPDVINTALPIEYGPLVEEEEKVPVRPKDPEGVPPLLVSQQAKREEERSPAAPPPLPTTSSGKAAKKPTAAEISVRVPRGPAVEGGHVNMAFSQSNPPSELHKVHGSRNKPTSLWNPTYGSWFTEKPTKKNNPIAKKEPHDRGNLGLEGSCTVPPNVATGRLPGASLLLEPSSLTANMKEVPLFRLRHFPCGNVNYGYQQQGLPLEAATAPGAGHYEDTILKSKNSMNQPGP
T2 sequence (P08581 956-1390 limits assumed): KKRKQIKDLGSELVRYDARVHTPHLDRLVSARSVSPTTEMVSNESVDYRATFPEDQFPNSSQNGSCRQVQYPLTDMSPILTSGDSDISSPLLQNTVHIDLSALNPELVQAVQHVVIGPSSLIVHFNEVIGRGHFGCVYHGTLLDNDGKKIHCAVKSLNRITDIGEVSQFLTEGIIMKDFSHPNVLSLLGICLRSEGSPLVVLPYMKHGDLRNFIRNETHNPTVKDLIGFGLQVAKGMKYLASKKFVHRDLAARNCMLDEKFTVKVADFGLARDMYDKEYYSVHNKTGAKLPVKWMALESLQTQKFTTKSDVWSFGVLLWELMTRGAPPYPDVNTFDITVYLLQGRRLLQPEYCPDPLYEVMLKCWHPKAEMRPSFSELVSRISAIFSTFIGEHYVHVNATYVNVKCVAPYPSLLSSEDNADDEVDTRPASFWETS

For “(1S,2S,4R)-3-{5-Chloro-2-[3-(2-dimethylamino-acetylamino)-1-ethyl-6-methoxy-2-oxo-2,3,4,5-tetrahydro-1H-benzo[b]azepin-7-ylamino]-pyrimidin-4-ylamino}-bicyclo[2.2.1]hept-5-ene-2-carboxylic acid amide [Example 1353]”, the figures for the IC50 in assay [1] (setting [3]) and in assay [2] (setting [4]) were below 100 nM and above 10 µM, respectively.
In the case of “N-(2-{5-Chloro-2-[3-(2-methoxy-ethyl)-2,3,4,5-tetrahydro-1H-benzo[d]azepin-7-ylamino]-pyrimidin-4-ylamino}-phenyl)-methanesulfonamide [Example 37]”, the IC50 is below 100 nM in assay [1] (setting [5]) and 1 to 10 µM in assay [2] (setting [6]).
The matching figures for “N-(2-{5-Chloro-2-[3-methyl-5-oxo-1-(2,2,2-trifluoro-acetyl)-2,3,4,5-tetrahydro-1H-benzo[e][1,4]diazepin-6-ylamino]-pyrimidin-4-ylamino}-phenyl)-methanesulfonamide and N-(2-{5-Chloro-2-[2-methyl-5-oxo-1-(2,2,2-trifluoro-acetyl)-2,3,4,5-tetrahydro-1H-benzo[e][1,4]diazepin-6-ylamino]-pyrimidin-4-ylamino}-phenyl)-methanesulfonamide (Mixture of regioisomers) [Example 230]”: below 100 nM and 1 to 10 µM.
For the substance “N-((1R,2R)-2-{5-Chloro-2-[7-(2,2,2-trifluoro-ethylamino)-6,7,8,9-tetrahydro-5H-benzocyclohepten-2-ylamino]-pyrimidin-4-ylamino}-cyclohexyl)-methanesulfonamide [Example 676]”, the values for the IC50 in assay [1] (setting [7]) and in assay [2] (setting [8]) were below 100 nM and above 10 µM, respectively.
Consider “N-((1R,2R)-2-{5-Chloro-2-[7-(2,2,2-trifluoro-ethylamino)-6,7,8,9-tetrahydro-5H-benzocyclohepten-2-ylamino]-pyrimidin-4-ylamino}-cyclohexyl)-methanesulfonamide [Example 687]”, for which the values for the IC50 in assay [1] (setting [7]) and in assay [2] (setting [8]) were below 100 nM and above 10 µM, respectively.
Taken in the same sequence, the figures for “N-((1R,2R)-2-{5-Chloro-2-[7-(2,2,2-trifluoro-ethylamino)-6,7,8,9-tetrahydro-5H-benzocyclohepten-2-ylamino]-pyrimidin-4-ylamino}-cyclohexyl)-methanesulfonamide [Example 688]” were 100 to 1000 nM and above 10 µM.
Taken in the same sequence, the figures for “N-((1R,2R)-2-{5-Chloro-2-[7-(2,2-difluoro-ethylamino)-6,7,8,9-tetrahydro-5H-benzocyclohepten-2-ylamino]-pyrimidin-4-ylamino}-cyclohexyl)-methanesulfonamide [Example 675]” were below 100 nM and above 10 µM.
Take “N-((1R,2R)-2-{5-Chloro-2-[(1R,8S)-10-(2,2,2-trifluoro-acetyl)-10-aza-tricyclo[6.3.2.0*2,7*]trideca-2,4,6-trien-4-ylamino]-pyrimidin-4-ylamino}-cyclohexyl)-methanesulfonamide and N-((1R,2R)-2-{5-Chloro-2-[(1S,8R)-10-(2,2,2-trifluoro-acetyl)-10-aza-tricyclo[6.3.2.0*2,7*]trideca-2,4,6-trien-4-ylamino]-pyrimidin-4-ylamino}-cyclohexyl)-methanesulfonamide [Example 345]”: the values for the IC50 in assay [1] (setting [5]) and in assay [2] (setting [6]) were below 100 nM and below 0.1 µM, respectively.
The matching figures for “N-{(1R,2R)-2-[2-(12-sec-Butyl-12-aza-tricyclo[7.2.1.0*2,7*]dodeca-2(7),3,5-trien-4-ylamino)-5-chloro-pyrimidin-4-ylamino]-cyclohexyl}-methanesulfonamide [Example 85]”: below 100 nM and 0.1 to 1 µM.
In the case of “{2-[2-(1-Acetyl-4-oxo-1,2,3,4,5,6-hexahydro-benzo[b][1,5]diazocin-8-ylamino)-5-chloro-pyrimidin-4-ylamino]-3-methyl-phenoxy}-acetonitrile [Example 1247]”, the IC50 in assay [1] (setting [3]) is below 100 nM; in assay [2] (setting [4]), 0.1 to 1 µM.
